From US8247382B2, “Method for increasing oxytocin release in the epidermis” (Shiseido Company, Ltd., priority 2008, dated 2012)
Where a name gives a salt, the structure may show the parent alone.

Experiments:
[1] = test system: epidermal keratinocytes of human neonates; test: Oxytocin release by differentiated keratinocytes after ATP gamma s addition (ELISA of culture medium); assay type: cell-based
Protocol: The keratinocytes used herein were epidermal keratinocytes of human neonates up to a passage number of 4 (Kurabo Industries Ltd.). The culture medium was Defined Keratinocyte-SFM (Invitrogen Japan K.K.). The keratinocytes were grown to confluence in 10-cm dishes at 37° C. for several days with the culture medium replaced on alternate days, and then the calcium chloride concentration in the culture medium was increased to 1.8 mM thereby inducing differentiation. After a lapse of 45 hours, adenosine-5′-(3-thio)triphosphoric acid tetralithium salt (Sigma Co., hereinafter referred to as “ATP gamma s-Li”) was added to each dish so as to make the final concentrations of 0, 10, 30, 100, and 300 μM, and the incubation of culture was continued at 37° C. The culture medium was collected 10 minutes after the addition of ATP gamma s, and the amount of oxytocin was measured with the ELISA method.
Oxytocin in the collected culture medium was purified and concentrated using a reversed phase column (C18 Sep-pak Light, Waters Co.), and eluted with an aqueous solution containing 60% acetonitrile and 0.1% trifluoroacetic acid. More specifically, the column eluate fraction containing oxytocin was freeze-dried, and dissolved again in a small amount of buffer solution (included in the EIA kit), and the oxytocin in the culture medium was concentrated at least 20 fold. Thereafter, the oxytocin concentration in the concentrated oxytocin solution was measured by the competitive ELISA method using Oxytocin EIA Kit (Assay Designs, Inc). The measurement procedure described in the instruction manual attached to the kit was followed. […] The absorbance of the color reaction by alkaline phosphatase was measured, and a semilogarithmic standard curve was generated by plotting the absorbance change due to the competitive inhibition against the known amount of oxytocin. The standard curve was used to determine the amount of oxytocin corresponding to the absorbance of the sample. […]

[2] = test system: keratinocytes; conditions: added to keratinocytes; J. Clin. Invest. (1992) 90, 42-51; Biochem. J. (2004) 380, 329-338; cited from earlier work

SMILES	change of oxytocin concentration in the culture media with ATP gamma s concentration ([1]; 0, 10, 30, 100, 300 μM ATP gamma s, 10 minutes, no EGTA)	oxytocin concentration in the culture medium ([1]; 300 μM ATP gamma s, medium collected 10 minutes after addition, 37° C., ELISA)	Ca2+ concentration in the keratinocytes [2]	effect of EGTA on the increase of oxytocin concentration with increases of ATP gamma s ([1]; 2 mM EGTA added 5 minutes before ATP gamma s)
Nc1ncnc2c1ncn2[C@@H]1O[C@H](COP(=O)(O)OP(=O)(O)OP(O)(O)=S)[C@@H](O)[C@H]1O [ATP gamma s, adenosine-5′-(3-thio)triphosphoric acid tetralithium salt]	increased with increases of ATP gamma s	exceeded 7 pg/mL	increase the Ca^2+ concentration in the keratinocytes in a concentration-dependent manner	–
Nc1ncnc2c1ncn2[C@@H]1O[C@H](COP(=O)(O)OP(=O)(O)OP(=O)(O)O)[C@@H](O)[C@H]1O [ATP]	–	–	increase the Ca^2+ concentration in the keratinocytes in a concentration-dependent manner	–
O=C(O)CN(CCOCCOCCN(CC(=O)O)CC(=O)O)CC(=O)O [EGTA, ethylene glycol bis(2-aminoethyl ether) tetraacetic acid]	–	–	–	inhibited
